Laboratory results taken from PubChem BioAssay AID328 (DTP/NCI, 2004).
“And” between values parts separate entries of the source, which are not always exact repeats. Equal entries are not always repeated. Inconclusive results and toxic doses are left out. How the source made its calls: active means survival T/C of 150% or more; inactive means T/C below 125% in these data.

Tested on: BDF1 mice, P388 leukemia ip, median survival T/C
Experiment: NCI In Vivo Anticancer Drug Screen. Data for tumor model P388 Leukemia (intraperitoneal) in B6D2F1 (BDF1) mice
Conditions: endpoint: median survival time, higher = longer survival
Procedure, shortened: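 Reported as T/C, where T is the survival measurement in dosed animals and C the same measurement in vehicle controls.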

[1] = dose: 40.0 mg/kg/injection, schedule: Q01DX010 (ip), vehicle: saline
[2] = dose: 50.0 mg/kg/injection, schedule: Q01DX009 (ip), vehicle: saline with Tween-80
[3] = dose: 100.0 mg/kg/injection, schedule: Q01DX009 (ip), vehicle: saline with Tween-80
[4] = dose: 200.0 mg/kg/injection, schedule: Q01DX009 (ip), vehicle: saline with Tween-80
[5] = dose: 400.0 mg/kg/injection, schedule: Q01DX009 (ip), vehicle: saline with Tween-80
[6] = dose: 50.0 mg/kg/injection, schedule: Q04DX003 (ip), vehicle: saline
[7] = dose: 100.0 mg/kg/injection, schedule: Q04DX003 (ip), vehicle: saline
[8] = dose: 200.0 mg/kg/injection, schedule: Q04DX003 (ip), vehicle: saline
[9] = dose: 100.0 mg/kg/injection, schedule: Q01DX009 (ip), vehicle: saline
[10] = dose: 200.0 mg/kg/injection, schedule: Q01DX009 (ip), vehicle: saline
[11] = dose: 400.0 mg/kg/injection, schedule: Q01DX009 (ip), vehicle: saline

Measured: T/C

CO[C@H](C)[C@](O)(C(=O)OCC1=CC[N+]2([O-])CC[C@H](O)[C@@H]12)C(C)C (some centres not stated)
inactive: [1] 100 % of control | dose: 80.0 mg/kg/injection, schedule: Q01DX010 (ip), vehicle: saline 105 % of control | dose: 160.0 mg/kg/injection, schedule: Q01DX010 (ip), vehicle: saline 116 % of control | dose: 200.0 mg/kg/injection, schedule: Q01DX007 (ip), vehicle: water 117 % of control | dose: 400.0 mg/kg/injection, schedule: Q01DX007 (ip), vehicle: water 119 % of control | dose: 800.0 mg/kg/injection, schedule: Q01DX007 (ip), vehicle: water 119 % of control | dose: 1600.0 mg/kg/injection, schedule: Q01DX007 (ip), vehicle: water 94 % of control

CCCCCC[C@@H](O)C/C=C\CCCCCCCC(=O)OCCO
inactive: dose: 50.0 mg/kg/injection, schedule: Q01DX005 (ip), vehicle: saline 99 % of control | dose: 100.0 mg/kg/injection, schedule: Q01DX005 (ip), vehicle: saline 107 % of control | dose: 200.0 mg/kg/injection, schedule: Q01DX005 (ip), vehicle: saline 93 % of control | dose: 400.0 mg/kg/injection, schedule: Q01DX005 (ip), vehicle: saline 105 % of control | dose: 800.0 mg/kg/injection, schedule: Q01DX005 (ip), vehicle: saline 115 % of control | dose: 1600.0 mg/kg/injection, schedule: Q01DX005 (ip), vehicle: saline 107 % of control

CC(=O)N(C)C(C(=O)N1CC(C)CC1C(=O)N(C)C1C(=O)NC(CC(C)C)C(=O)N2CC(C)CC2C(=O)NC(CC(C)C)C(=O)N(C)C(C(C)C)C(=O)N2CCCC2C(=O)N(C)C(CC(C)C)C(=O)NCC(=O)OC1C)C(C)C (configuration not stated)
inactive: dose: 37.5 mg/kg/injection, schedule: Q01DX009 (ip), vehicle: Klucel (hydroxypropylcellulose) (HPC) 107 % of control | dose: 75.0 mg/kg/injection, schedule: Q01DX009 (ip), vehicle: Klucel (hydroxypropylcellulose) (HPC) 107 % of control

Cc1cc2nc(Cc3nc4cc(C)c(C)cc4[nH]3)[nH]c2cc1C
inactive: dose: 100.0 mg/kg/injection, schedule: Q04DX003 (ip), vehicle: saline with Tween-80 95 % of control | dose: 200.0 mg/kg/injection, schedule: Q04DX003 (ip), vehicle: saline with Tween-80 90 % of control | dose: 400.0 mg/kg/injection, schedule: Q04DX003 (ip), vehicle: saline with Tween-80 95 % of control

Cc1nc2ncn(C)c2nc1C
inactive: dose: 25.0 mg/kg/injection, schedule: Q01DX001 (ip), vehicle: saline sonified 105 % of control | dose: 50.0 mg/kg/injection, schedule: Q01DX001 (ip), vehicle: saline sonified 100 % of control | dose: 100.0 mg/kg/injection, schedule: Q01DX001 (ip), vehicle: saline sonified 105 % of control

Cc1cccc(N2CCN(CCC#N)CC2)c1
inactive: dose: 25.0 mg/kg/injection, schedule: Q01DX009 (ip), vehicle: saline with Tween-80 91 % of control | [2] 95 % of control | [3] 91 % of control

O/N=C1/CCCc2ccccc21
inactive: [3] 86 % of control | [4] 86 % of control | [5] 86 % of control

CCCCCC[C@@H](O)[C@@H]1C2=C(C[C@H]([C@H](O)[C@@H]3CC=CC(=O)O3)CC3=C(C(=O)OC3=O)[C@@H]1O)C(=O)OC2=O
inactive: dose: 0.12 mg/kg/injection, schedule: Q01DX009 (ip), vehicle: saline 107 % of control | dose: 0.25 mg/kg/injection, schedule: Q01DX009 (ip), vehicle: saline 109 % of control | dose: 0.5 mg/kg/injection, schedule: Q01DX009 (ip), vehicle: saline 107 % of control | dose: 1.0 mg/kg/injection, schedule: Q01DX009 (ip), vehicle: saline 119 % of control

CCCCN(CCCC)CCCNC(=O)OCC
inactive: dose: 25.0 mg/kg/injection, schedule: Q01DX009 (ip), vehicle: Klucel (hydroxypropylcellulose) (HPC) 100 % of control | dose: 25.0 mg/kg/injection, schedule: Q04DX003 (ip), vehicle: Klucel (hydroxypropylcellulose) (HPC) 100 % of control | dose: 50.0 mg/kg/injection, schedule: Q01DX009 (ip), vehicle: Klucel (hydroxypropylcellulose) (HPC) 110 % of control | dose: 50.0 mg/kg/injection, schedule: Q04DX003 (ip), vehicle: Klucel (hydroxypropylcellulose) (HPC) 104 % of control | dose: 100.0 mg/kg/injection, schedule: Q01DX009 (ip), vehicle: Klucel (hydroxypropylcellulose) (HPC) 115 % of control | dose: 100.0 mg/kg/injection, schedule: Q04DX003 (ip), vehicle: Klucel (hydroxypropylcellulose) (HPC) 109 % of control

[NH-]CC(=O)[N-]CC(=O)O.[NH-]CC(=O)[N-]CC(=O)O.[Ni]
inactive: dose: 3.0 mg/kg/injection, schedule: Q01DX009 (ip), vehicle: saline 100 % of control | dose: 6.0 mg/kg/injection, schedule: Q01DX009 (ip), vehicle: saline 103 % of control | dose: 12.0 mg/kg/injection, schedule: Q01DX009 (ip), vehicle: saline 116 % of control | dose: 12.5 mg/kg/injection, schedule: Q04DX003 (ip), vehicle: saline 104 % of control | dose: 18.0 mg/kg/injection, schedule: Q01DX009 (ip), vehicle: saline 110 % of control | dose: 25.0 mg/kg/injection, schedule: Q04DX003 (ip), vehicle: saline 109 % of control | [6] 100 % of control and 118 % of control

Cn1cnc([N+](=O)[O-])c1[Se]c1nc(N)nc2c1ncn2C1CC(O)C(CO)O1 (configuration not stated)
inactive: [6] 95 % of control | [7] 90 % of control | [8] 90 % of control

COc1ccc2c(c1O)-c1c(OC)c(OC)cc3c1C(C2)N(C)CC3 (configuration not stated)
inactive: dose: 5.0 mg/kg/injection, schedule: Q01DX010 (ip), vehicle: saline 100 % of control | dose: 10.0 mg/kg/injection, schedule: Q01DX010 (ip), vehicle: saline 95 % of control | dose: 20.0 mg/kg/injection, schedule: Q01DX010 (ip), vehicle: saline 100 % of control | [1] 100 % of control

CCOC1(CC)CN(Cc2ccccc2)CCO1 (configuration not stated)
inactive: dose: 100.0 mg/kg/injection, schedule: Q01DX001 (ip), vehicle: Klucel (hydroxypropylcellulose) (HPC) 121 % of control | dose: 200.0 mg/kg/injection, schedule: Q01DX001 (ip), vehicle: Klucel (hydroxypropylcellulose) (HPC) 121 % of control | dose: 400.0 mg/kg/injection, schedule: Q01DX001 (ip), vehicle: Klucel (hydroxypropylcellulose) (HPC) 115 % of control

CC(C)C1CCC2=C(CCC3C(C)(C(=O)O)CCCC23C)C1 (configuration not stated)
inactive: [9] 109 % of control | [10] 100 % of control | [11] 100 % of control

N#Cc1cccc(CC(O)(c2ccccc2)c2cccc3ccccc23)c1 (configuration not stated)
inactive: [2] 103 % of control | [3] 97 % of control | [4] 99 % of control

Cc1ccc(-n2nnc3ccccc3c2=O)cc1C
inactive: [9] 109 % of control | [7] 100 % of control | [10] 90 % of control | [8] 104 % of control | [11] 113 % of control | dose: 400.0 mg/kg/injection, schedule: Q04DX003 (ip), vehicle: saline 100 % of control

CC1(C)CCC2(C)CC=C3OC(=O)CCC3(C)C2C1 (configuration not stated)
inactive: [3] 118 % of control | dose: 100.0 mg/kg/injection, schedule: Q04DX003 (ip), vehicle: saline sonified 100 % of control | [4] 100 % of control | dose: 200.0 mg/kg/injection, schedule: Q04DX003 (ip), vehicle: saline sonified 100 % of control | [5] 109 % of control | dose: 400.0 mg/kg/injection, schedule: Q04DX003 (ip), vehicle: saline sonified 95 % of control

O=C(O)c1ccccc1C(=O)OC1=CS(=O)(=O)CC1
inactive: dose: 50.0 mg/kg/injection, schedule: Q01DX001 (ip), vehicle: saline with Tween-80 93 % of control | dose: 100.0 mg/kg/injection, schedule: Q01DX001 (ip), vehicle: saline with Tween-80 96 % of control | dose: 200.0 mg/kg/injection, schedule: Q01DX001 (ip), vehicle: saline with Tween-80 97 % of control | dose: 400.0 mg/kg/injection, schedule: Q01DX001 (ip), vehicle: saline with Tween-80 110 % of control

CC1=C(O)C(O)C2OC2C1=O (configuration not stated)
inactive: dose: 12.5 mg/kg/injection, schedule: Q01DX009 (ip), vehicle: saline 96 % of control | dose: 25.0 mg/kg/injection, schedule: Q01DX009 (ip), vehicle: saline 87 % of control | dose: 50.0 mg/kg/injection, schedule: Q01DX009 (ip), vehicle: saline 107 % of control

Clc1ccc(CN2CCCN(Cc3ccc(Cl)c(Cl)c3)S2)cc1Cl
inactive: [2] 101 % of control | [3] 97 % of control | [4] 90 % of control
